Assay [1] deals with T1, EGFR wild type (Homo sapiens, UniProt P00533).
T1 construct: purchased Invitrogen Corporation Shanghai Representative Office
As to the kind of experiment: HTRF kinase activity assay, EGFR wild type. The class given is biochemical. As to conditions: 10 μM ATP, read-out: In vitro enzymatic activity IC50, EGFR. (In general: In TR-FRET formats the signal depends on donor and acceptor labels being close together.)
Method: (§1) The above kinases were purchased from Invitrogen Corporation Shanghai Representative Office.
(§2) The reaction concentration of the compounds was three times diluted from 1000 nM for 9 concentrations. The concentration of DMSO in the reaction system was 2%. The enzyme and the compound were pre-incubated for 15 minutes, and then ATP and substrate were added to initiate the reaction. All enzyme catalyzed reactions were carried out at 25° C. for 60 minutes. […] Measure the HTRF fluorescence value with CLARIOstar (BMG LABTECH) after the incubation, and IC50 was determined using GraphPad Prism 5.0.

In assay [2] the target is T2, Exon19 deletion EGFR in HCC827 cells (Homo sapiens, UniProt P00533, DEL746-750).
T2 construct: Assayed the endogenous p-EGFR of the cell lysate; host or cells: HCC827
T2 sequence (P00533 with tags, fused parts or gaps DEL746-750): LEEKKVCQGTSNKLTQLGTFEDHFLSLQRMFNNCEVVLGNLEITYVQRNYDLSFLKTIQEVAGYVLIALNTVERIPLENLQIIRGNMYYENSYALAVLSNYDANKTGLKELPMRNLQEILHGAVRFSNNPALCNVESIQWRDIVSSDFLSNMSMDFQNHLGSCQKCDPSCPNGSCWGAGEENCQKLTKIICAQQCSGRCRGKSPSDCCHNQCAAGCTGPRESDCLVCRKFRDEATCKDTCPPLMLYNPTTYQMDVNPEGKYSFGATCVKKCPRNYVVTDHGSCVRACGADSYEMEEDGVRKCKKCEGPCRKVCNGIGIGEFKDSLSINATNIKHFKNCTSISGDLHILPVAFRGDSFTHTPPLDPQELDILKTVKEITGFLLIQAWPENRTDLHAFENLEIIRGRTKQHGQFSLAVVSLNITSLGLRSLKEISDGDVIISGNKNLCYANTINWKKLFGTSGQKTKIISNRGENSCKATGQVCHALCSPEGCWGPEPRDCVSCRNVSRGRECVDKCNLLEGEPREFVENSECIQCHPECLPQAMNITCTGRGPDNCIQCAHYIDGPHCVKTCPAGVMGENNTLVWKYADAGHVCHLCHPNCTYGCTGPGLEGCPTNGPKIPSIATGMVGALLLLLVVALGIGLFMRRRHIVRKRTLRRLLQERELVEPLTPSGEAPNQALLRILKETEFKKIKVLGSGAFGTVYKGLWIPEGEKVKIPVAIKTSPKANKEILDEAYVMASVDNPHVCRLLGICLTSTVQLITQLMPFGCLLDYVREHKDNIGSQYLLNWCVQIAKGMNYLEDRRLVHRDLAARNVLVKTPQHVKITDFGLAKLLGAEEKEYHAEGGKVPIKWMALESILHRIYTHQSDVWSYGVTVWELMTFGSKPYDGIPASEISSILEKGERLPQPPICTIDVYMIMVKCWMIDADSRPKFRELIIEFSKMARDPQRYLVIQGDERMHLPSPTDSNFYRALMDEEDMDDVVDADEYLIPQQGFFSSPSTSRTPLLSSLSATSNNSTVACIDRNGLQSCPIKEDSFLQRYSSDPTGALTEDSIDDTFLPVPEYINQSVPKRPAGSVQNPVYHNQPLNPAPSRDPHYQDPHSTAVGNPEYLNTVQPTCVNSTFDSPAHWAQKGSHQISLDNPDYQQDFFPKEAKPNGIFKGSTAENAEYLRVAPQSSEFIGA
The experiment in a line: Exon19 deletion EGFR cell phosphorylation assay (HCC827). In kind it is cell-based. The conditions noted are these: 2 h incubation, read-out: Cell level EGFR phosphorylation IC50, HCC827 (EGFR del19).
Method: Test 2: Exon19 Deletion EGFR (Activated Single Mutant) Cell Phosphorylation Assay
The human non-small cell lung cancer cell line HCC827 (Exon19 deletion EGFR, activated single mutant) was purchased from the cell bank of the Chinese Academy of Sciences. HCC827 was maintained in an RPMI1640 culture media containing 10% fetal bovine serum. The cells were grown at 37° C. in a humidified incubator containing 5% CO2. Assayed the endogenous p-EGFR of the cell lysate according to the Phospho-EGFR HTRF kit (Cisbio, No. #64HR1PEG). 100 μL of cells were added to a 96-well plate (50000 cells/well), and cultured overnight at 37° C. in a cell incubator with 5% CO2. 4-fold serial dilutions was added to the cells, the maximum concentration of the reaction being 10 μM. The culture solution was discarded after 2 hours' continuous incubation, lysate (25 μL/well) was added immediately, lyse the cells at room temperature for 10 minutes, then 12 μL/well of cells were added to a Greiner white small-volume 384-well plate, detection antibodies (Anti-phospho EGFR-d2 and Anti-EGFR-Tb) were added, and the cells were incubated at 25° C. for 60 minutes. The HTRF fluorescence value was measured with CLARIOstar (BMG LABTECH) after the incubation, and IC50 was determined using GraphPad Prism 5.0.

The target of assay [3] is T3, hERG potassium channels (Homo sapiens, UniProt Q12809).
T3 construct: expressed in transfected cells; host or cells: HEK293
T3 sequence (Q12809 whole entry): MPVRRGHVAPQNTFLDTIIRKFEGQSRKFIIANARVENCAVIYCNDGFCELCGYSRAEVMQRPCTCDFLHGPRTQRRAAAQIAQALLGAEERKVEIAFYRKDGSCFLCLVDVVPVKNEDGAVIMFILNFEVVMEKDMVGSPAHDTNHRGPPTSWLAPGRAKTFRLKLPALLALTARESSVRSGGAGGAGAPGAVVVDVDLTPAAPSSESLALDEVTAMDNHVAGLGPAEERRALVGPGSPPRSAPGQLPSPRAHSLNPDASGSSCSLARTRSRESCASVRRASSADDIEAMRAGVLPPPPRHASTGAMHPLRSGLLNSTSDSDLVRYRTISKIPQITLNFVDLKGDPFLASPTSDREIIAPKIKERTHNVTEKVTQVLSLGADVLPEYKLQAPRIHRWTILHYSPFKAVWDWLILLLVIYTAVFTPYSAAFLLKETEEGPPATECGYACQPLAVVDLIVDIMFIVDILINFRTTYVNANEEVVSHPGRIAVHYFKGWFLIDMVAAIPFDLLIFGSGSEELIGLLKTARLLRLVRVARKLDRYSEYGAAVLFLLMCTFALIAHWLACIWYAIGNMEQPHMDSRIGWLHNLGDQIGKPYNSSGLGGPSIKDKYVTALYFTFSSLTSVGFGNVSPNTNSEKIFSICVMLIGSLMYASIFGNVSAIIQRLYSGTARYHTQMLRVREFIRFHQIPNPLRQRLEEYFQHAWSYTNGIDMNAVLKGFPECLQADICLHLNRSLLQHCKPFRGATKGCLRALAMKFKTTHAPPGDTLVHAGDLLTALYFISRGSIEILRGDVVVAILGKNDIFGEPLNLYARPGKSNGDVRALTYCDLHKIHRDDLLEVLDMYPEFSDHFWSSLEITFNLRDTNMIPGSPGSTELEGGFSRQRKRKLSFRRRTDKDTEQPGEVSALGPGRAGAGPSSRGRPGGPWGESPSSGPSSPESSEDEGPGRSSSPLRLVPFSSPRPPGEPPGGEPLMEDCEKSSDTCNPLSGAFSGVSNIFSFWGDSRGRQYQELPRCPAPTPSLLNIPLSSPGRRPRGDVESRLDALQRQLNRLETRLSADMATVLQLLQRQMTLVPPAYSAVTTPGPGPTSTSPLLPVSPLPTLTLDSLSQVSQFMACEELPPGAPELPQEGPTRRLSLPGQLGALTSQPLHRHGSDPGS
The experiment in a line: hERG potassium channel whole cell patch clamp. The class given is cell-based. As to conditions: HEK293 cells stably expressing hERG, tail current, read-out: IC50 of inhibition on hERG potassium channels at cell level. The procedure: 3) Assay on the Effects of the Compounds on hERG Potassium Channels
HEK293 cells stably expressing an hERG channel were cultured in 35 mm culture dishes and placed in a 37° C./5% CO2 incubator for at least 24 hours before the experiment. The cell culture medium was DMEM containing 10% fetal bovine serum and 250 μg/mL G418.
The ingredients of the extracellular fluid used in the whole cell patch clamp experiment were (mM): NaCl, 137; KCl, 4; CaCl2, 1.8; MgCl2, 1; HEPES, 10; glucose 10; pH 7.4 (NaOH titration). All tested compounds and control compound solutions contained 0.3% DMSO. The intracellular fluid (mM) was: K Aspartate, 130; MgCl2, 5; EGTA 5; HEPES, 10; Tris-ATP 4; pH 7.2 (KOH titration).
One dish was taken out for each experiment, washed twice with the extracellular fluid, and placed on an inverted microscope stage. The whole cell patch clamp experiment was performed at room temperature with a tip resistance of 3 to 5 MΩ for a borosilicate glass microelectrode. After the whole cell recording mode, the membrane potential was clamped at −80 mV, gave a +50 mV depolarization voltage stimulation to the cells every 30 s and then repolarized to −50 mV for 3 s after 2 s to elicit hERG tail current. The cells were given a −50 mV repolarization voltage for 50 ms before the depolarization voltage stimulation, and the current recorded under this voltage was used as a baseline for calculating the hERG tail current. The hERG tail current was stably recorded for at least 3 minutes in the extracellular fluid before the addition of the compound. When the amplitude change of the hERG tail current was less than 5% after perfusion administration, it was considered that the drug action reached a steady state. Data was acquired and analyzed by a pCLAMP 10.1 software program. […] The inhibition rate of the tested compound to the hERG current was calculated according to the following equation: % inhibition rate={1−(remaining current amplitude)/(control current amplitude)}×100 […]

The target of assay [4] is wild type EGFR in A431 cells (Homo sapiens, UniProt P00533). The experiment in a line: EGFR wild type cell phosphorylation assay (A431).
Chain of wild type EGFR in A431 cells (P00533 25-1210): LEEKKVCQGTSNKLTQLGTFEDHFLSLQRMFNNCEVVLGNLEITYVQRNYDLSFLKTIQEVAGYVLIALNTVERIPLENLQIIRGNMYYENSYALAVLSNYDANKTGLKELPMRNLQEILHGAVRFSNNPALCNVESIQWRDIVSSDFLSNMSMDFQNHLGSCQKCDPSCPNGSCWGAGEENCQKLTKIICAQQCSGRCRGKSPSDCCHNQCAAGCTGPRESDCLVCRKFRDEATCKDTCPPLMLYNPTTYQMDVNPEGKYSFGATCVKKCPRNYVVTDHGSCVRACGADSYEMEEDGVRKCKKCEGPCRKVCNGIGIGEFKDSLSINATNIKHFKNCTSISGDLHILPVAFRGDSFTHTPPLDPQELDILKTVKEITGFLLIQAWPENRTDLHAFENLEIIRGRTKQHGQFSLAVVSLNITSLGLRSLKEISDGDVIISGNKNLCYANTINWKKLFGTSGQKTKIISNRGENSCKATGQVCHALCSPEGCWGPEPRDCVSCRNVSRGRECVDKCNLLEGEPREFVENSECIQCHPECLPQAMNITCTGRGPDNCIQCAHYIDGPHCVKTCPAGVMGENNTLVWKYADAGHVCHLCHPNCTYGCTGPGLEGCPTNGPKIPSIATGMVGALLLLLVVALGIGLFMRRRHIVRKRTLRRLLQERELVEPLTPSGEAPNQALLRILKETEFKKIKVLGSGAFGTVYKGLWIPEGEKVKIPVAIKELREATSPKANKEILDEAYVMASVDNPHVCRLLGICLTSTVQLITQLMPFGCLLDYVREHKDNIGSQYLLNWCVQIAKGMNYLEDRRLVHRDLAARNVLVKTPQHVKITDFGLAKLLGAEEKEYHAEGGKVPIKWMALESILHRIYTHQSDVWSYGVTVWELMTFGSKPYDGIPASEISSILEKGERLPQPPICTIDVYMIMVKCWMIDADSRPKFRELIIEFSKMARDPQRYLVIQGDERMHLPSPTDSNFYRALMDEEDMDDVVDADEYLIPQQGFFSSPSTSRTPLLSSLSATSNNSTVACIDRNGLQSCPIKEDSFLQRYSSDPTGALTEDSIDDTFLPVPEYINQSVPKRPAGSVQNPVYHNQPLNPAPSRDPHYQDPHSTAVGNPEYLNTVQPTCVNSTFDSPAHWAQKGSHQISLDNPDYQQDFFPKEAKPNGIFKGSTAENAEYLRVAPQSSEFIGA
Method: Test 1: EGFR Wild Type Cell Phosphorylation Assay
The human epidermoid carcinom cell line A431 expressed wild type EGFR and was purchased from the cell bank of the Chinese Academy of Sciences. A431 was maintained in an EMEM culture media containing 10% fetal bovine serum. The cells were grown at 37° C. in a humidified incubator containing 5% CO2. Endogenous p-EGFR in the cell lysate was assayed according to Phospho-EGFR HTRF kit (Cisbio, No. #64HR1PEG). Cells were plated (50000 cells/well) in a volume of 100 μL of complete media in 96-well cell culture plates and cultured at 37° C. with 5% CO2 overnight. 4-fold serial dilutions was added to the cells, the maximum concentration of the reaction being 10 μM. The cells were incubated continuously for 2 hours, 100 ng/well of EGF was added, incubated at 37° C. for 10 minutes, then the culture solution was discarded, lysis buffer (25 μL/well) was added immediately, lyse the cells at room temperature for 10 minutes, then 12 μL/well of the cell lysates were added to a Greiner white small-volume 384-well plate, detection antibodies (Anti-phospho EGFR-d2 and Anti-EGFR-Tb) were added, and the cells were incubated at 25° C. for 60 minutes. The HTRF fluorescence value was measured with CLARIOstar (BMG LABTECH) after the incubation, and IC50 was determined using GraphPad Prism 5.0.
For assay [5], the target named is EGFR (L858R) single mutant (Homo sapiens, UniProt P00533, L858R). As to the kind of experiment: HTRF kinase activity assay, EGFR (L858R) single mutant.
Method: as §1, §2

For four compounds, IC50 results are on record in US10654851B2, “Deuterated 3-(4,5-substituted aminopyrimidine)phenyl derivatives and use thereof” (NANJING CHUANGTE PHARMACEUTICAL TECHNOLOGY CO., LTD, priority 2016, dated 2020).

By IC50 is commonly meant the point on the concentration scale where inhibition reaches its midpoint.

Each structure is given as a SMILES string.

T1 sequence (P00533 25-1210): as above

In the case of `[2H]C([2H])([2H])N(CCN(C)c1cc(OC)c(Nc2nccc(-c3cn4c5c(cccc35)CCC4)n2)cc1NC(=O)C=C)C([2H])([2H])[2H]` [Compound 16], the half-maximal inhibitory concentration (IC50) in assay [1] came to 27 nM; in assay [2], 103 nM; in assay [3], 2670 nM; in assay [4], 732 nM; in assay [5], 11.6 nM.
Take `[2H]C([2H])([2H])NCCN(C)c1cc(OC)c(Nc2nccc(-c3cn4c5c(cccc35)CCC4)n2)cc1NC(=O)C=C` [Compound 34]: the IC50 was found to be 35.4 nM in assay [1] and 14.1 nM in assay [5].
For `[2H]C([2H])([2H])N(CCN(C)C)c1cc(OC)c(Nc2nccc(-c3cn4c5c(cccc35)CCC4)n2)cc1NC(=O)C=C` [Compound 24], the half-maximal inhibitory concentration (IC50) in assay [1] came to 15.7 nM; in assay [2], 78.1 nM; in assay [3], 1970 nM; in assay [4], 520 nM; in assay [5], 8.99 nM.
For `[2H]C([2H])([2H])N(C)CCN(C)c1cc(OC)c(Nc2nccc(-c3cn4c5c(cccc35)CCC4)n2)cc1NC(=O)C=C` [Compound 11], the IC50 stood at 38 nM in assay [1]; 101 nM in assay [2]; 1850 nM in assay [3]; 730 nM in assay [4]; 11.5 nM in assay [5].
